According to ChEMBL document CHEMBL1909046, “DrugMatrix in vitro pharmacology data”:

Columns and labels:
[1] = molecular target: T1, Alpha-2C adrenergic receptor (Homo sapiens, UniProt P18825); assay: DRUGMATRIX: Adrenergic Alpha-2C radioligand binding (ligand: [3H] MK-912); type: cell membranes, Sf9, Membrane; conditions: sf9
T1 sequence (P18825 whole entry): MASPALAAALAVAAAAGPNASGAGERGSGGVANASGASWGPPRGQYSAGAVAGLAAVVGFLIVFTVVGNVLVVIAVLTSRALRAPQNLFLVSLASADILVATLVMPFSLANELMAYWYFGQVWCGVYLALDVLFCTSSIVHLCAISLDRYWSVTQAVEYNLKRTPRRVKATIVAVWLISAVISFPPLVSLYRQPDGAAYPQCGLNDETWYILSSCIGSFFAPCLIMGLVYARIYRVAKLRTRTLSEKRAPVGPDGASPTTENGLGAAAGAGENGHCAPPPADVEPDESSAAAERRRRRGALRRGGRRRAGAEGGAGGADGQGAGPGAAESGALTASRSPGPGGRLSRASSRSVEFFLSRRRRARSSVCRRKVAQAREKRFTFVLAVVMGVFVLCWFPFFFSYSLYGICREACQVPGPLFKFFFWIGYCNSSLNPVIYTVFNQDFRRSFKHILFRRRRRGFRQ

[2] = molecular target: T2, Type-2 angiotensin II receptor (Homo sapiens, UniProt P50052); type: cell-based; conditions: cho-k1; further: in other assays of this panel Not Active means under 50% inhibition at 10 µM
T2 sequence (P50052 whole entry): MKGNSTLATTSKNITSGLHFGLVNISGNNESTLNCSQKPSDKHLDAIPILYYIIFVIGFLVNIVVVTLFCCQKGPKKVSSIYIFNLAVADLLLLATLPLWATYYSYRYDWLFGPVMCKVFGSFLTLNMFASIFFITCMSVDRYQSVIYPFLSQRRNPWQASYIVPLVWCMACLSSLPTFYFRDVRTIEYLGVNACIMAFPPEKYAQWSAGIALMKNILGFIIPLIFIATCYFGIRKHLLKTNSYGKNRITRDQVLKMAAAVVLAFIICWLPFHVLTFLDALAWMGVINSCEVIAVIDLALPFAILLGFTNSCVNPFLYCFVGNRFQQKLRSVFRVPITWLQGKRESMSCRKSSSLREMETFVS

[3] = molecular target: Sigma non-opioid intracellular receptor 1 (Homo sapiens, UniProt Q99720); assay: DRUGMATRIX: Sigma1 radioligand binding (ligand: [3H] Haloperidol); type: cell membranes, Jurkat, Membrane; conditions: jurkat; Not Active = under 50% inhibition at 10 µM
[4] = DRUGMATRIX: Glutamate, AMPA radioligand binding (ligand: [3H] AMPA); type: cell membranes, Rattus norvegicus, Wistar, Cerebral cortex, Membrane; conditions: Not Active = under 50% inhibition at 10 µM
[5] = molecular target: Histamine H2 receptor (Homo sapiens, UniProt P25021); type: cell membranes, CHO-K1, Membrane; conditions: cho-k1; further: in other assays of this panel Not Active means under 50% inhibition at 10 µM
[6] = molecular target: Melanocortin receptor 5 (Homo sapiens, UniProt P33032); type: cell membranes, HEK293, Membrane; further: in other assays of this panel Not Active means under 50% inhibition at 10 µM
Melanocortin receptor 5, sequence (P33032 whole entry): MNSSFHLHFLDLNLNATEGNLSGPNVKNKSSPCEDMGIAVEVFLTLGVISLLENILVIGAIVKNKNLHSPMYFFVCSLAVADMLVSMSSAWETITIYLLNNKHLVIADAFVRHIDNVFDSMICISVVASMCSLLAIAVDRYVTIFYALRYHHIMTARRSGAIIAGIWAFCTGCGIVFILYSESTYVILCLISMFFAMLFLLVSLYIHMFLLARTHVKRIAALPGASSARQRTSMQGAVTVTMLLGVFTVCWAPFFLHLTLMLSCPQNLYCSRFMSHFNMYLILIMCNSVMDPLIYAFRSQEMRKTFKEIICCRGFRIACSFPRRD

Histamine H2 receptor, sequence (P25021 whole entry): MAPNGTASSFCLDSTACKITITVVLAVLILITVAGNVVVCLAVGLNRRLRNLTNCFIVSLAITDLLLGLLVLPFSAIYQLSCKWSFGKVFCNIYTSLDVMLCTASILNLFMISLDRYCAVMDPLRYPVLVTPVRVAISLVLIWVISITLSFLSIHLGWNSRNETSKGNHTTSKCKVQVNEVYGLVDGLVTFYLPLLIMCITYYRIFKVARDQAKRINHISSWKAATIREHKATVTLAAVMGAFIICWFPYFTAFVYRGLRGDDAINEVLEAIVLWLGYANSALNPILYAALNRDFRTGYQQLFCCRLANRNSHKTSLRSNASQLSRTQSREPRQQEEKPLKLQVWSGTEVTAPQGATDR
Sigma non-opioid intracellular receptor 1, sequence (Q99720 whole entry): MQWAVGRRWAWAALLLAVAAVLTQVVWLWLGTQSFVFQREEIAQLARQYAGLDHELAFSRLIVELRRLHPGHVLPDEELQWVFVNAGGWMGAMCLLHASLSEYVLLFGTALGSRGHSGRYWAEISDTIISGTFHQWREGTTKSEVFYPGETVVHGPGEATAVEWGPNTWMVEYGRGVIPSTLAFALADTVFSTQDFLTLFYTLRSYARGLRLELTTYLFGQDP

SMILES	IC50 [1]	IC50 [2]	IC50 [3]	IC50 [4]	Ki [4]	IC50 [5]	IC50 ([6]; hek293)	IC50 ([6]; read-out: IC50) [µM]	Ki ([6]; read-out: Ki) [µM]
CC(C)(C)NC(=O)[C@@H]1C[C@@H]2CCCC[C@@H]2CN1C[C@@H](O)[C@H](Cc1ccccc1)NC(=O)[C@H](CC(N)=O)NC(=O)c1ccc2ccccc2n1	Not Active	Not Active	Not Active	Not Active	Not Active	Not Active	Not Active		
CC(=O)[C@@]1(O)CC[C@H]2[C@@H]3C[C@H](C)C4=CC(=O)CC[C@]4(C)[C@H]3CC[C@@]21C	Not Active	Not Active	Not Active	Not Active	Not Active	Not Active	Not Active		
N[C@@H](Cc1ccc(N(CCCl)CCCl)cc1)C(=O)O	Not Active	Not Active	Not Active	Not Active	Not Active	Not Active	Not Active		
CCCCc1oc2ccccc2c1C(=O)c1cc(I)c(OCCN(CC)CC)c(I)c1 [AMIODARONE]	Not Active	Not Active						9.5	8.91
OCCN(CCO)c1nc(N2CCCCC2)c2nc(N(CCO)CCO)nc(N3CCCCC3)c2n1 [DIPYRIDAMOLE]	Not Active	Not Active	Not Active	Not Active	Not Active	Not Active	Not Active		
Cc1oncc1C(=O)Nc1ccc(C(F)(F)F)cc1 [LEFLUNOMIDE]	Not Active	Not Active	Not Active	Not Active	Not Active	Not Active	Not Active		
c1ccc([C@H]2CN3CCSC3=N2)cc1 [LEVAMISOLE]	Not Active	Not Active	Not Active	Not Active	Not Active	Not Active	Not Active		
N[C@@H](Cc1ccc(O)c(O)c1)C(=O)O [LEVODOPA]	Not Active	Not Active	Not Active	Not Active	Not Active	Not Active	Not Active		
N[C@@H](Cc1cc(I)c(Oc2ccc(O)c(I)c2)c(I)c1)C(=O)O [LIOTHYRONINE]	Not Active	Not Active	Not Active			Not Active	Not Active		
O=NN(CCCl)C(=O)NC1CCCCC1 [LOMUSTINE]	Not Active	Not Active	Not Active	Not Active	Not Active	Not Active	Not Active		
CCOC(=O)N1CCC(=C2c3ccc(Cl)cc3CCc3cccnc32)CC1 [LORATADINE]	Not Active	Not Active	Not Active	Not Active	Not Active	Not Active	Not Active		
Cn1ccnc1S [METHIMAZOLE]	Not Active	Not Active	Not Active	Not Active	Not Active	Not Active	Not Active		
CC[C@@H](CO)NC(=O)[C@@H]1C=C2c3cccc4[nH]cc(c34)C[C@H]2N(C)C1 [METHYLERGONOVINE]	Not Active	Not Active	Not Active	Not Active	Not Active	Not Active	Not Active		
COc1nc(C)nc(Cl)c1NC1=NCCN1 [MOXONIDINE]	Not Active	Not Active	Not Active	Not Active	Not Active	Not Active	Not Active		
COc1c(C)c2c(c(O)c1C/C=C(\C)CCC(=O)O)C(=O)OC2 [MYCOPHENOLIC ACID]	Not Active	Not Active	Not Active	Not Active	Not Active	Not Active	Not Active		
O=c1ncn2nc(Sc3ccc(F)cc3F)ccc2c1-c1c(Cl)cccc1Cl [NEFLAMAPIMOD]	Not Active	Not Active	Not Active	Not Active	Not Active	Not Active	Not Active		
